Measured values taken from PubChem BioAssay (NCI).
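Method: 48-hour compound exposure of cells in 96-well plates, five concentrations, linear interpolation of endpoints. Abbreviation: GI50, concentration required for 50% inhibition of growth. TGI: total growth inhibition.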

Key:
Experiment in all cases: inhibition of tumour cell growth, NCI panel, 48 h
CAKI-1 renal = test system: CAKI-1 renal
SF-295 CNS = test system: SF-295 CNS
NCI-H23 lung = test system: NCI-H23 lung
BT-549 breast = test system: BT-549 breast
DU-145 prostate = test system: DU-145 prostate
786-0 renal = test system: 786-0 renal
OVCAR-5 ovarian = test system: OVCAR-5 ovarian
SK-MEL-28 melanoma = test system: SK-MEL-28 melanoma
OVCAR-4 ovarian = test system: OVCAR-4 ovarian
SK-MEL-5 melanoma = test system: SK-MEL-5 melanoma
SNB-19 CNS = test system: SNB-19 CNS
M14 melanoma = test system: M14 melanoma
SK-OV-3 ovarian = test system: SK-OV-3 ovarian
HOP-62 NSCLC = test system: HOP-62 NSCLC
HCC-2998 colon = test system: HCC-2998 colon
TK-10 renal = test system: TK-10 renal
SW-620 colon = test system: SW-620 colon
SF-268 CNS = test system: SF-268 CNS
HS 578T breast = test system: HS 578T breast
A498 renal = test system: A498 renal
COLO 205 colon = test system: COLO 205 colon
MDA-MB-435 = test system: MDA-MB-435
NCI-H460 lung = test system: NCI-H460 lung
K-562 leukemia = test system: K-562 leukemia
HOP-92 NSCLC = test system: HOP-92 NSCLC
MALME-3M melanoma = test system: MALME-3M melanoma
UO-31 renal = test system: UO-31 renal
SN12C renal = test system: SN12C renal
NCI/ADR-RES ovarian = test system: NCI/ADR-RES ovarian
ACHN renal = test system: ACHN renal
NCI-H226 lung = test system: NCI-H226 lung
HL-60(TB) leukemia = test system: HL-60(TB) leukemia
IGROV1 ovarian = test system: IGROV1 ovarian
UACC-257 melanoma = test system: UACC-257 melanoma
RPMI-8226 leukemia = test system: RPMI-8226 leukemia
SR leukemia = test system: SR leukemia
LOX IMVI melanoma = test system: LOX IMVI melanoma
PC-3 prostate = test system: PC-3 prostate
A549 NSCLC = test system: A549 NSCLC
MCF7 breast = test system: MCF7 breast
NCI-H522 lung = test system: NCI-H522 lung
HCT-116 colon = test system: HCT-116 colon
CCRF-CEM leukemia = test system: CCRF-CEM leukemia
MDA-MB-231 breast = test system: MDA-MB-231 breast
HCT-15 colon = test system: HCT-15 colon
U251 CNS = test system: U251 CNS
UACC-62 melanoma = test system: UACC-62 melanoma
T-47D breast = test system: T-47D breast
RXF 393 renal = test system: RXF 393 renal
OVCAR-8 ovarian = test system: OVCAR-8 ovarian
OVCAR-3 ovarian = test system: OVCAR-3 ovarian
KM12 colon = test system: KM12 colon
HT29 colon = test system: HT29 colon
SF-539 CNS = test system: SF-539 CNS
MOLT-4 leukemia = test system: MOLT-4 leukemia
SK-MEL-2 melanoma = test system: SK-MEL-2 melanoma
EKVX NSCLC = test system: EKVX NSCLC

C/C(Cc1ccc(Cl)cc1)=C(\c1ccc(OCCN2CCCCCC2)cc1)c1ccc(OC(=O)c2ccccc2)cc1
GI50 (CAKI-1 renal): 3.08 µM | TGI (CAKI-1 renal): 10.6 µM | GI50 (SF-295 CNS): 2.27 µM | TGI (SF-295 CNS): 8.48 µM | GI50 (NCI-H23 lung): 4.69 µM | TGI (NCI-H23 lung): 12.6 µM | GI50 (BT-549 breast): 6.27 µM | TGI (BT-549 breast): 12.7 µM | GI50 (DU-145 prostate): 4.26 µM | TGI (DU-145 prostate): 11.1 µM | GI50 (786-0 renal): 2.99 µM | TGI (786-0 renal): 9.44 µM | GI50 (OVCAR-5 ovarian): 4.64 µM | TGI (OVCAR-5 ovarian): 11.7 µM | GI50 (SK-MEL-28 melanoma): 1.15 µM | TGI (SK-MEL-28 melanoma): 2.94 µM | GI50 (OVCAR-4 ovarian): 1.88 µM | TGI (OVCAR-4 ovarian): 8.51 µM | GI50 (SK-MEL-5 melanoma): 2.3 µM | TGI (SK-MEL-5 melanoma): 8.48 µM | GI50 (SNB-19 CNS): 5.29 µM | TGI (SNB-19 CNS): 14.6 µM | GI50 (M14 melanoma): 1.01 µM | TGI (M14 melanoma): 2.36 µM | GI50 (SK-OV-3 ovarian): 5.8 µM | TGI (SK-OV-3 ovarian): 13.2 µM | GI50 (HOP-62 NSCLC): 5.98 µM | TGI (HOP-62 NSCLC): 12.3 µM | GI50 (HCC-2998 colon): 1.38 µM | TGI (HCC-2998 colon): 3.53 µM | GI50 (TK-10 renal): 6.03 µM | TGI (TK-10 renal): 13.3 µM | GI50 (SW-620 colon): 2.52 µM | TGI (SW-620 colon): 9.7 µM | GI50 (SF-268 CNS): 3.03 µM | TGI (SF-268 CNS): 10.7 µM | GI50 (HS 578T breast): 4.29 µM | TGI (HS 578T breast): 14.4 µM | GI50 (A498 renal): 5.37 µM | TGI (A498 renal): 11.4 µM | GI50 (COLO 205 colon): 1.71 µM | TGI (COLO 205 colon): 7.34 µM | GI50 (MDA-MB-435): 2.65 µM | TGI (MDA-MB-435): 9.27 µM | GI50 (NCI-H460 lung): 1.61 µM | TGI (NCI-H460 lung): 5.23 µM | GI50 (K-562 leukemia): 1.55 µM | TGI (K-562 leukemia): 5.88 µM | GI50 (HOP-92 NSCLC): 1.1 µM | TGI (HOP-92 NSCLC): 4.43 µM | GI50 (MALME-3M melanoma): 1.76 µM | TGI (MALME-3M melanoma): 6.56 µM | GI50 (UO-31 renal): 1.39 µM | TGI (UO-31 renal): 7.3 µM | GI50 (SN12C renal): 3.19 µM | TGI (SN12C renal): 10.3 µM | GI50 (NCI/ADR-RES ovarian): 3.24 µM | TGI (NCI/ADR-RES ovarian): 11.3 µM | GI50 (ACHN renal): 5.77 µM | TGI (ACHN renal): 12.8 µM | GI50 (NCI-H226 lung): 8.45 µM | TGI (NCI-H226 lung): 17.5 µM | GI50 (HL-60(TB) leukemia): 1.62 µM | TGI (HL-60(TB) leukemia): 9.03 µM | GI50 (IGROV1 ovarian): 2.72 µM | TGI (IGROV1 ovarian): 10.3 µM | GI50 (UACC-257 melanoma): 6.18 µM | TGI (UACC-257 melanoma): 13 µM | GI50 (RPMI-8226 leukemia): 1.16 µM | TGI (RPMI-8226 leukemia): 3.28 µM | GI50 (SR leukemia): 1.25 µM | TGI (SR leukemia): 3.8 µM | GI50 (LOX IMVI melanoma): 1.25 µM | TGI (LOX IMVI melanoma): 3.22 µM | GI50 (PC-3 prostate): 1.7 µM | TGI (PC-3 prostate): 7.29 µM | GI50 (A549 NSCLC): 4.27 µM | TGI (A549 NSCLC): 12.6 µM | GI50 (MCF7 breast): 0.358 µM | TGI (MCF7 breast): 6.92 µM | GI50 (NCI-H522 lung): 5.78 µM | TGI (NCI-H522 lung): 12.9 µM | GI50 (HCT-116 colon): 1.34 µM | TGI (HCT-116 colon): 4.54 µM | GI50 (CCRF-CEM leukemia): 1.12 µM | TGI (CCRF-CEM leukemia): 3.79 µM | GI50 (MDA-MB-231 breast): 2.15 µM | TGI (MDA-MB-231 breast): 8.22 µM | GI50 (HCT-15 colon): 1.73 µM | TGI (HCT-15 colon): 7.53 µM | GI50 (U251 CNS): 2.61 µM | TGI (U251 CNS): 8.96 µM | GI50 (UACC-62 melanoma): 1.3 µM | TGI (UACC-62 melanoma): 3.9 µM | GI50 (T-47D breast): 1.43 µM | TGI (T-47D breast): 9.73 µM | GI50 (RXF 393 renal): 2.49 µM | TGI (RXF 393 renal): 9.15 µM | GI50 (OVCAR-8 ovarian): 2.85 µM | TGI (OVCAR-8 ovarian): 9.35 µM | GI50 (OVCAR-3 ovarian): 3.78 µM | TGI (OVCAR-3 ovarian): 10.2 µM | GI50 (KM12 colon): 2.36 µM | TGI (KM12 colon): 9.23 µM | GI50 (HT29 colon): 1.64 µM | TGI (HT29 colon): 5.75 µM | GI50 (SF-539 CNS): 5.18 µM | TGI (SF-539 CNS): 11.4 µM | GI50 (MOLT-4 leukemia): 1.29 µM | TGI (MOLT-4 leukemia): 5.95 µM | GI50 (SK-MEL-2 melanoma): 6.92 µM | TGI (SK-MEL-2 melanoma): 14 µM | GI50 (EKVX NSCLC): 4.32 µM | TGI (EKVX NSCLC): 16.6 µM
